{"source": "patent US20260224524A1", "about": "“A PHARMACEUTICAL COMPOSITION TARGETING MUTANT P53 AND HER2” (DR DOZO LABORATORIES, priority 2023, published 2026)", "key": {"[1]": {"test_system": "Human Breast Cancer Cell Line MDA-MB-231", "assay": "Growth inhibition (% control growth, LC50, TGI, GI50) MDA-MB-231", "type": "cell-based", "description": "The therapeutic effect of […] (peak 5) and SA2 (peak 4) is evaluated against human […] cancer cell line MDA-MB-231 by calculating the percentage growth inhibition, drug concentration of test compound needed to inhibit cell growth by 50% (GI50) values.\nThe therapeutic effect of SACC is evaluated against human […] cancer cell lines MDA-MB-231 by calculating the percentage growth inhibition, drug concentration of test compound needed to inhibit cell growth by 50% (GI50) values."}, "[2]": {"test_system": "Human Lung Cancer Cell Line A-549", "assay": "Growth inhibition (% control growth, LC50, TGI, GI50) A-549", "type": "cell-based", "description": "The therapeutic effect of SA1 (peak 5) and SA2 (peak 4) is evaluated against human lung cancer cell line A-549 by calculating the percentage growth inhibition, drug concentration of test compound needed to inhibit cell growth by 50% (GI50) values.\nThe therapeutic effect of SACC is evaluated against human lung cancer cell line A-549 by calculating the percentage growth inhibition, drug concentration of test compound needed to inhibit cell growth by 50% (GI50) values."}}}
{"smiles": "COc1cccc2c1C(=O)c1c(O)c3c(c(O)c1C2=O)C[C@@](O)(C(=O)CO)C[C@@H]3O[C@H]1C[C@H](N)[C@H](O)[C@H](C)O1", "note": "[ADR, Adriamycin]", "values": [{"measurement": "% Control Growth", "setting": "[1]; 10 μg/ml, Average Values", "result": "−88.7", "unit": "%"}, {"measurement": "% Control Growth", "setting": "[1]; 10 μg/ml, Experiment 1", "result": "−90.5", "unit": "%"}, {"measurement": "% Control Growth", "setting": "[1]; 10 μg/ml, Experiment 3", "result": "−86.3", "unit": "%"}, {"measurement": "% Control Growth", "setting": "[1]; 20 μg/ml, Average Values", "result": "−83.1", "unit": "%"}, {"measurement": "% Control Growth", "setting": "[1]; 20 μg/ml, Experiment 2", "result": "−84.8", "unit": "%"}, {"measurement": "% Control Growth", "setting": "[1]; 20 μg/ml, Experiment 3", "result": "−79.3", "unit": "%"}, {"measurement": "% Control Growth", "setting": "[1]; 40 μg/ml, Average Values", "result": "−81.2", "unit": "%"}, {"measurement": "% Control Growth", "setting": "[1]; 40 μg/ml, Experiment 2", "result": "−82.5", "unit": "%"}, {"measurement": "% Control Growth", "setting": "[1]; 40 μg/ml, Experiment 3", "result": "−80.2", "unit": "%"}, {"measurement": "% Control Growth", "setting": "[1]; 80 μg/ml, Average Values", "result": "−74.8", "unit": "%"}, {"measurement": "% Control Growth", "setting": "[1]; 80 μg/ml, Experiment 1", "result": "−75.2", "unit": "%"}, {"measurement": "% Control Growth", "setting": "[1]; 80 μg/ml, Experiment 2", "result": "−78.1", "unit": "%"}, {"measurement": "% Control Growth", "setting": "[1]; 10^−4M, Average Values", "result": "−69.1", "unit": "%"}, {"measurement": "% Control Growth", "setting": "[1]; 10^−4M, Experiment 1", "result": "−68.3", "unit": "%"}, {"measurement": "% Control Growth", "setting": "[1]; 10^−4M, Experiment 2", "result": "−69.6", "unit": "%"}, {"measurement": "% Control Growth", "setting": "[1]; 10^−4M, Experiment 3", "result": "−69.4", "unit": "%"}, {"measurement": "% Control Growth", "setting": "[1]; 10^−5M, Average Values", "result": "−82.4", "unit": "%"}, {"measurement": "% Control Growth", "setting": "[1]; 10^−5M, Experiment 1", "result": "−80.5", "unit": "%"}, {"measurement": "% Control Growth", "setting": "[1]; 10^−5M, Experiment 2", "result": "−83.4", "unit": "%"}, {"measurement": "% Control Growth", "setting": "[1]; 10^−5M, Experiment 3", "result": "−83.3", "unit": "%"}, {"measurement": "% Control Growth", "setting": "[1]; 10^−6M, Average Values", "result": "−85.0", "unit": "%"}, {"measurement": "% Control Growth", "setting": "[1]; 10^−6M, Experiment 1", "result": "−83.1", "unit": "%"}, {"measurement": "% Control Growth", "setting": "[1]; 10^−6M, Experiment 2", "result": "−86.2", "unit": "%"}, {"measurement": "% Control Growth", "setting": "[1]; 10^−6M, Experiment 3", "result": "−85.8", "unit": "%"}, {"measurement": "% Control Growth", "setting": "[1]; 10^−7M, Average Values", "result": "−87.8", "unit": "%"}, {"measurement": "% Control Growth", "setting": "[1]; 10^−7M, Experiment 1", "result": "−82.8", "unit": "%"}, {"measurement": "% Control Growth", "setting": "[1]; 10^−7M, Experiment 2", "result": "−91.0", "unit": "%"}, {"measurement": "% Control Growth", "setting": "[1]; 10^−7M, Experiment 3", "result": "−89.6", "unit": "%"}, {"measurement": "GI50", "setting": "[1]; Homo sapiens, calculated from graph", "result": "< 10", "unit": "µg/mL"}, {"measurement": "TGI", "setting": "[1]; calculated from graph", "result": "<10", "unit": "µg/mL"}, {"measurement": "% Control Growth", "setting": "[2]; A-549, 10 μg/ml, Average Values", "result": "−26.5", "unit": "%"}, {"measurement": "% Control Growth", "setting": "[2]; A-549, 10 μg/ml, Experiment 1", "result": "−23.5", "unit": "%"}, {"measurement": "% Control Growth", "setting": "[2]; A-549, 10 μg/ml, Experiment 2", "result": "−29.5", "unit": "%"}, {"measurement": "% Control Growth", "setting": "[2]; A-549, 10 μg/ml, Experiment 3", "result": "−26.5", "unit": "%"}, {"measurement": "% Control Growth", "setting": "[2]; A-549, 20 μg/ml, Average Values", "result": "−30.8", "unit": "%"}, {"measurement": "% Control Growth", "setting": "[2]; A-549, 20 μg/ml, Experiment 1", "result": "−28.2", "unit": "%"}, {"measurement": "% Control Growth", "setting": "[2]; A-549, 20 μg/ml, Experiment 2", "result": "−33.8", "unit": "%"}, {"measurement": "% Control Growth", "setting": "[2]; A-549, 20 μg/ml, Experiment 3", "result": "−30.4", "unit": "%"}, {"measurement": "% Control Growth", "setting": "[2]; A-549, 40 μg/ml, Average Values", "result": "−46.0", "unit": "%"}, {"measurement": "% Control Growth", "setting": "[2]; A-549, 40 μg/ml, Experiment 1", "result": "−45.0", "unit": "%"}, {"measurement": "% Control Growth", "setting": "[2]; A-549, 40 μg/ml, Experiment 2", "result": "−48.7", "unit": "%"}, {"measurement": "% Control Growth", "setting": "[2]; A-549, 40 μg/ml, Experiment 3", "result": "−44.2", "unit": "%"}, {"measurement": "% Control Growth", "setting": "[2]; A-549, 80 μg/ml, Average Values", "result": "−50.0", "unit": "%"}, {"measurement": "% Control Growth", "setting": "[2]; A-549, 80 μg/ml, Experiment 1", "result": "−49.4", "unit": "%"}, {"measurement": "% Control Growth", "setting": "[2]; A-549, 80 μg/ml, Experiment 2", "result": "−51.0", "unit": "%"}, {"measurement": "% Control Growth", "setting": "[2]; A-549, 80 μg/ml, Experiment 3", "result": "−49.4", "unit": "%"}, {"measurement": "% Control Growth", "setting": "[2]; A-549, 10^−4M, Average Values", "result": "−43.0", "unit": "%"}, {"measurement": "% Control Growth", "setting": "[2]; A-549, 10^−4M, Experiment 1", "result": 36.5, "unit": "%"}, {"measurement": "% Control Growth", "setting": "[2]; A-549, 10^−4M, Experiment 2", "result": 44.4, "unit": "%"}, {"measurement": "% Control Growth", "setting": "[2]; A-549, 10^−4M, Experiment 3", "result": "−48.1", "unit": "%"}, {"measurement": "% Control Growth", "setting": "[2]; A-549, 10^−5M, Average Values", "result": "−34.9", "unit": "%"}, {"measurement": "% Control Growth", "setting": "[2]; A-549, 10^−5M, Experiment 1", "result": "−30.6", "unit": "%"}, {"measurement": "% Control Growth", "setting": "[2]; A-549, 10^−5M, Experiment 2", "result": "−33.8", "unit": "%"}, {"measurement": "% Control Growth", "setting": "[2]; A-549, 10^−5M, Experiment 3", "result": "−40.3", "unit": "%"}, {"measurement": "% Control Growth", "setting": "[2]; A-549, 10^−6M, Average Values", "result": "−4.0", "unit": "%"}, {"measurement": "% Control Growth", "setting": "[2]; A-549, 10^−6M, Experiment 1", "result": 10.2, "unit": "%"}, {"measurement": "% Control Growth", "setting": "[2]; A-549, 10^−6M, Experiment 2", "result": "−11.3", "unit": "%"}, {"measurement": "% Control Growth", "setting": "[2]; A-549, 10^−6M, Experiment 3", "result": "−11.0", "unit": "%"}, {"measurement": "% Control Growth", "setting": "[2]; A-549, 10^−7M, Average Values", "result": 12.4, "unit": "%"}, {"measurement": "% Control Growth", "setting": "[2]; A-549, 10^−7M, Experiment 1", "result": 53.2, "unit": "%"}, {"measurement": "% Control Growth", "setting": "[2]; A-549, 10^−7M, Experiment 2", "result": 15.9, "unit": "%"}, {"measurement": "% Control Growth", "setting": "[2]; A-549, 10^−7M, Experiment 3", "result": "−32.0", "unit": "%"}, {"measurement": "TGI", "setting": "[2]; A-549, Molar drug concentrations calculated from graph", "result": 4.143, "unit": "µg/mL"}, {"measurement": "TGI", "setting": "[2]; A-549, calculated from graph", "result": "<10", "unit": "µg/mL"}, {"measurement": "GI50", "setting": "[2]; Homo sapiens, A549, A-549, calculated from graph", "result": "< 10", "unit": "µg/mL"}, {"measurement": "CC50", "setting": "[2]; Homo sapiens, A549, read-out: LC50, A-549, calculated from graph", "result": 72, "unit": "µg/mL"}, {"measurement": "GI50", "setting": "[2]; Homo sapiens, A549, A-549, Molar drug concentrations calculated from graph", "result": 1.2, "unit": "µg/mL"}]}
